Reference: patent US10406120B2, “Methods and compositions for treating kidney disorders” (Golden Biotechnology Corporation, priority 2013, dated 2019)

Key:
superoxide anion = test: FSGS model: superoxide anion / ROS determination (lucigenin, DHE); assay type: in vivo, BALB/c mice; conditions: FSGS mice
Procedure: (§1) Experiments described herein were performed on 8-week-old female BALB/c mice. The FSGS mice were injected intravenously with a single dose of adriamycin (0.1 mg/10 g body weight). The mice were given Compound 1 six hours before adriamycin injection by gavage daily till sacrifice. BALB/c mice intraperitoneal injected with normal saline were used as normal controls, while ASLN mice given vehicle (corn oil) by gavage were used as disease controls. Mice were killed at day 7, 14, or 21 after disease induction, and spleen, renal cortical tissue, and blood samples collected and stored appropriately until analysis. All animal experiments were performed with the ethical approval of the Institutional Animal Care and Use Committee of The National Defense Medical Center, Taiwan and performed according to the ethical rules in the NIH Guide for the Care and Use of Laboratory Animals.
Kidney in-situ superoxide anion production was determined by DHE labeling according to the known method. (Wu, et al., Nephrol Dial Transplant, 2008, 23: 3082-3090, or Ka, et al., J. Am. Soc. Nephrol. 2007, 18:2473-2485) Fluorescent images were quantified by counting the percentage of positive nuclei in the total nuclei per kidney cross section. Sera and kidney tissues were assessed for superoxide anion according to the known method. (Wu, et al., J Pineal Res, 2001, 30: 147-156, or Ka, et al., J. Am. Soc. Nephrol. 2007, 18:2473-2485) For ROS levels of serum, urine, and renal tissue, the samples were incubated with Krebs-HEPES buffer, and lucigenin (Sigma-Aldrich Chemical Co, MO) at 1.25 mM was used as substrate. Luminescence counts were obtained in duplicate at 15 sec intervals by a microplate luminometer (Hidex Microplate Luminometer, Finland), as previously described (Kretzler, et al.,. Virchows Arch, 425: 181-193, 1994). The superoxide anion activity was expressed as relative luminescence units (RLU) per 15 min per mg of organ dry weight (i.e., RUL/15 min/mg) or RLU/15 min/ml.

IL-6 = test: AcP-IgAN model: renal IL-6 mRNA and protein; assay type: in vivo, B cell-deficient mice; conditions: AcP-IgAN mice
Procedure: (§2) B cell-deficient mice (B6.129S2-Igh-6tm1Cgn/J) were obtained from the Academia Sinica (Professor John T. Kung, Institute of Molecular Biology), and maintained at the animal center of the National Defense Medical Center, Taipei, Taiwan. AcP-IgAN was induced in the mice by daily injection of purified IgA anti-phosphorylcholine antibodies and pneumococcal C-polysaccharide (PnC) as described previously (Chao, et al., Kidney Int. 70:283-297; 2006). All animal experiments were performed with the approval of the Institutional Animal Care and Use Committee of The National Defense Medical Center, Taiwan, and were consistent with the NIH Guide for the Care and Use of Laboratory Animals.
For IHC, formalin fixed and paraffin embedded tissue sections or frozen sections were incubated with against IL-6 (R&D Systems, MN), MCP-1 (Santa Cruz, Calif.), F4/80 (monocytes/macrophages; Serotec, N.C.), collagen IV (Southern Biotech, AL), TGF-β1 (Santa Cruz), phopsho-NFκB p65 (Cell Signaling, MA), CD3 (pan-T cell; Serotec), CD4 (T helper cell; BioLegend, CA), CD8 (cytotoxic T cell), CD11b (macrophages/neutrophils), or CD11c (dendritic cells) (BD Biosciences, CA) antibodies. The FITC-conjugated, Alexa Fluor 488-conjugated (Invitrogen, CA) or horseradish peroxidase (HRP) conjugated secondary antibodies (DAKO, Denmark) were then applied to the sections. Hematoxylin or 4′,6-diamidino-2-phenylindole (DAKO) was used in the counter staining for nuclei.
Total cortical kidney RNA was extracted with TriZOL reagents (Invitrogen) from cortical tissue of the kidney. For first-strand cDNA synthesis, 1.5 μg of total RNA was used in a single-round reverse transcriptase reaction. The reaction mixture consisted of 0.9 μl of Oligo (dT) 12 to 18 primer, 1.0 mM deoxyribonucleotide triphosphate (dNTP), 1 μl first strand buffer, 0.4 mM dithiothreitol, 80 U of RNaseout recombinant ribonuclease inhibitor, and 300 U of superscript II RNase H (Invitrogen). Real-time PCR was performed on an ABI Prism 7700 Sequence Detection System (Applied Biosystems, CA). […]

collagen I, III, and IV = test: FSGS model: renal collagen accumulation (IHC); assay type: in vivo, BALB/c mice; conditions: FSGS mice
Procedure: as §1
For IHC, formalin-fixed and paraffin-embedded renal sections were prepared and incubated with primary antibodies against mouse Desmin (Lab Vision, CA, USA), CD3 (pan-T cell; Serotec, N.C., USA), F4/80 (monocytes/macrophages; Serotec), IL-6 (R&D Systems, MN, USA), NF-κB p65 (Cell Signaling Technology, MA, USA), collagen I, III, and IV (Southern Biotech, AL, USA), or TGF-β1 (Santa Cruz Biotechnology, CA, USA), biotinylated second antibodies (Dako, Glostrup, Denmark), and avidin-biotin-peroxidase complex (Dako). Semi-quantitative evaluation of staining was performed.

splenocytes = test: AcP-IgAN model: flow cytometry of T cell activation in splenocytes; assay type: in vivo, B cell-deficient mice; conditions: AcP-IgAN mice
Procedure: as §2
Splenocytes from the mice were treated with Tris-buffered ammonium chloride to eliminate erythrocytes, washed, resuspended in RPMI 1640 supplemented with 10% fetal calf serum, HEPES buffer, L-glutamine, and penicillin/streptomycin (all from Invitrogen). The cells were stained with either surface marker for T or B cell activation. FITC-conjugated anti-mouse CD3, CD4, CD8, or CD19 (B cell) antibodies and phycoerythrin (PE)-conjugated anti-mouse CD69 antibodies (all from BD Biosciences) were analyzed with FACSCalibur (BD Biosciences).

[1] = day 28, vs control AcP-IgAN mice
[2] = day 14 to day 21, vs control FSGS mice
[3] = day 3, vs control AcP-IgAN mice

## COC1=C(OC)[C@H](O)[C@H](C/C=C(\C)CC/C=C(\C)CCC=C(C)C)[C@@H](C)C1=O [Compound 1, Antroquinonol]
Superoxide anion; day 7 to day 21, vs control FSGS mice
  superoxide anion levels in urine: significantly lowered
Superoxide anion; day 7 to day 21, vs control FSGS mice, to a level similar to normal control
  serum superoxide anion levels: effectively attenuated
Superoxide anion; day 14 and day 21
  in-situ ROS production in renal tissue (DHE fluorescence): only very low DHE fluorescence
Superoxide anion; day 14 and day 21, vs control FSGS mice, to a level similar to normal control
  superoxide anion levels in the kidney: effectively attenuated
IL-6; day 3
  renal expression levels of mRNA and protein of IL-6: no such effect
IL-6; [1]
  renal expression levels of mRNA of IL-6: significantly reduced
  renal expression levels of protein of IL-6: significantly reduced
Collagen I, III, and IV; [2]
  renal expression of collagen I (IHC): significant suppression
  renal expression of collagen IV (IHC): significant suppression
Collagen I, III, and IV; day 21, vs control FSGS mice
  renal expression of collagen III (IHC): significant suppression
splenocytes; [3]
  percentage of CD3^+/CD69^+ T cells in splenocytes: significant reduction
  percentage of CD4^+/CD69^+ T cells in splenocytes: no significant difference
  percentage of CD8^+/CD69^+ T cells in splenocytes: no significant difference
splenocytes; day 28
  percentage of each of the three subtypes of T cells (CD3^+/CD69^+, CD4^+/CD69^+, CD8^+/CD69^+): no different from that of normal controls
